Assay results published in patent US8258321B2, “Beta-lactone compounds” (Burnham Institute for Medical Research, priority 2007, dated 2012).
pIC50, pKi: −log10 of the molar value. Like-named read-outs stand apart in the source and are kept apart here.

How the values were obtained:
[1] = system: MB-MDA-231 cells; experiment: Cell Viability Assay (MTS), MB-MDA-231; type: cell-based; conditions: 3 k 231, 48 h
Procedure: (§1) Cell Viability Assays for Determination of Test Compound Potencies
(§2) Plates were incubated for 2 h and absorbance was assayed at 490 nm. Background levels of formazan formation were measured in medium alone. IC50 values were derived from dose-response curves.

[2] = system: human fibroblast cells; experiment: Cell Viability Assay (MTS), human fibroblast cells (HFF); type: cell-based; conditions: 48 h
Procedure: as §1, §2

[3] = biological target: T1, FAS TE (Homo sapiens, UniProt P49327); experiment: Fluorogenic Assay for Detection of FASTE Inhibition (4-MUH substrate); type: biochemical; conditions: 500 nM FAS TE, 30 min pre-incubation at 37° C.
T1 construct: The unique carboxyl terminal thioesterase domain of fatty acid synthase
Procedure: Fluorogenic Assay for Detection of FASTE Inhibition
The synthetic fluorogenic substrate, 4-methylumbelliferyl heptanoate (4-MUH), was purchased from Sigma (St. Louis, Mo.). The reaction mixture consisted of 500 nM FAS TE in buffer (100 mM Tris-HCl, 50 mM NaCl at pH 7.4) which was pre-incubated with 2.5 μL test compounds dissolved in DMSO at final concentrations of […] and/or 0.08-10 μM at 37° C. for 30 minutes. […] 4-MUH incubated without enzyme served as a background control. Results are the average of triplicate time points.

[4] = Homo sapiens, Fibroblast, 3 k HFF, read-out: avg 3 k HFF IC50
[5] = Homo sapiens, Fibroblast, 50 k HFF, read-out: avg 50 k HFF IC50
[6] = 3 k HFF, read-out: avg 3 k HFF IC50
[7] = 50 k HFF, read-out: avg 50 k HFF IC50

T1 sequence (P49327 2207-2511 limits assumed): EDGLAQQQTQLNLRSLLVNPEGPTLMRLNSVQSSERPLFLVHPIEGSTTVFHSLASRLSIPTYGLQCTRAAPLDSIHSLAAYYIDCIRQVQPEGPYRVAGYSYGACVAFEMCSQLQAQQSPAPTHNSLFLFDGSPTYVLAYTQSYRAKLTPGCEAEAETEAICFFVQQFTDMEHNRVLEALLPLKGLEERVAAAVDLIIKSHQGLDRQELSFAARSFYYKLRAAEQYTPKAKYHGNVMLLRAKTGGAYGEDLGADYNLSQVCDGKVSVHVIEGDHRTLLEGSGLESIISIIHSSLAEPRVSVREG

Row | pKi [3] | SMILES | pIC50 ([1]; 48 h) | pIC50 [2, 4] | pIC50 [2, 5] | pIC50 [1] | pIC50 [2, 6] | pIC50 [2, 7]
1 | – | C/C=C/CC[C@@H](C[C@@H]1OC(=O)[C@H]1CCCCCC)OC(=O)[C@@H](NC=O)C(C)C | 4.64 | 4.46 | 4.56 | – | – | –
2 | – | C=CCC[C@H](CC1OC(=O)[C@H]1CCCCCC)OC(=O)CNC=O (some centres unmarked) [listing 1 of 2 here] | < 4.00 | < 4.00 | < 4.00 | – | – | –
3 | 6.28 | C=CCC[C@H](C[C@@H]1OC(=O)[C@H]1CCCCCC)OC(=O)CNC=O | – | – | – | – | – | –
4 | 6.77 | CCCCCCCCCCCCC[C@@H](CC1OC(=O)[C@H]1CCCCCC)OC(=O)[C@H](Cc1cnc[nH]1)NC=O (some centres unmarked) | 4.43 | 4.80 | 4.55 | – | – | –
5 | – | CCCCCCCCCCC[C@@H](C[C@@H]1OC(=O)[C@H]1CCCCCC)OC(=O)[C@H](CC(C)C)NC=O | 4.70 | < 4.00 | < 4.00 | – | – | –
6 | – | CCCCCCCCCCC[C@@H](C[C@@H]1OC(=O)[C@H]1CCCCCC)OC(=O)CNC=O | 5.32 | 4.70 | 4.56 | – | – | –
7 | – | CCCCCCC/C=C/CC[C@@H](C[C@@H]1OC(=O)[C@H]1CCCCCC)OC(=O)[C@H](CC(C)C)NC=O | 4.20 | 4.36 | 4.02 | – | – | –
8 | 6.66 | C=CCC[C@@H](C[C@@H]1OC(=O)[C@H]1CCCCCC)OC(=O)[C@H](Cc1ccccc1)NC=O | 4.61 | 4.13 | 4.19 | – | – | –
9 | 6.32 | CCCCCCCCCCC[C@@H](O)C[C@@H]1OC(=O)[C@H]1CCCCCC | 4.57 | 4.39 | 4.53 | – | – | –
10 | – | CCCCCCCCCCC[C@H](C[C@@H]1OC(=O)[C@H]1CCCCCC)OC(=O)CNC=O | 4.93 | 4.33 | 4.39 | – | – | –
11 | 6.64 | CCCCCC[C@@H]1C(=O)O[C@H]1C[C@H](CC/C=C/COCCOCCOCC(=O)OCc1ccccc1)OC(=O)[C@H](CC(C)C)NC=O | 4.33 | 4.15 | < 4.00 | – | – | –
12 | 6.82 | CCCCCCC/C=C/CC[C@@H](C[C@@H]1OC(=O)[C@H]1CCCCCC)OC(=O)[C@H](Cc1ccccc1)NC=O | < 4.00 | 4.60 | 4.44 | – | – | –
13 | 6.64 | CCCCCCCCCCC[C@H](C[C@@H]1OC(=O)[C@H]1CC)OC(=O)CNC=O | 5.89 | – | 5.01 | – | – | –
14 | 6.82 | CCCCCC[C@@H]1C(=O)O[C@H]1C[C@H](CC/C=C/c1ccc(F)cc1)OC(=O)[C@H](CC(C)C)NC=O | 4.85 | 4.48 | 4.30 | – | – | –
15 | 6.64 | C/C=C/CC[C@@H](C[C@@H]1OC(=O)[C@H]1CCCCCC)OC(=O)[C@H](Cc1ccccc1)NC=O | 4.42 | 4.21 | 4.28 | – | – | –
16 | – | CCCCCC[C@@H]1C(=O)O[C@H]1C[C@H](CCCCC)OC(=O)[C@@H](NC=O)C(C)C | – | – | < 4.00 | – | – | –

Row | pKi [3] | SMILES | pIC50 ([1]; 48 h) | pIC50 [2, 4] | pIC50 [2, 5] | pIC50 [1] | pIC50 [2, 6] | pIC50 [2, 7]
17 | – | C/C=C/CC[C@H](C[C@@H]1OC(=O)[C@H]1CCCCCC)OC(=O)[C@@H](NC=O)C(C)C | – | 3.99 | < 4.00 | – | – | –
18 | 7.22 | C=CCC[C@H](CC1OC(=O)[C@H]1CCCCCC)OC(=O)CNC=O (some centres unmarked) [listing 2 of 2 here] | – | – | – | 4.27 | < 4.00 | < 4.00
19 | 6.80 | CCCCCCCCCCC[C@H](CC1OC(=O)[C@H]1CCCC)OC(=O)CNC=O (some centres unmarked) | 4.45 | 4.51 | 4.36 | – | – | –
20 | – | CCCCCC[C@@H]1C(=O)OC1C[C@@H](C)OC(=O)CNC=O (some centres unmarked) | < 4.00 | < 4.00 | < 4.00 | – | – | –
21 | 7.05 | CCCCCC[C@@H]1C(=O)O[C@H]1C[C@@H](C)OC(=O)CNC=O | – | – | – | – | – | –
22 | – | CCCCCC[C@@H]1C(=O)OC1C[C@@H](COS(=O)(=O)c1ccc(C)cc1)OC(=O)CNC=O (some centres unmarked) | < 4.00 | < 4.00 | < 4.00 | – | – | –
23 | 7.00 | CCCCCC[C@@H]1C(=O)O[C@H]1C[C@@H](COS(=O)(=O)c1ccc(C)cc1)OC(=O)CNC=O | – | – | – | – | – | –
24 | – | CCCCCCCCCCC[C@@H](CC1OC(=O)[C@H]1CC)OC(=O)CNC=O (some centres unmarked) | 4.05 | < 4.00 | < 4.00 | – | – | –
25 | 6.80 | CCCCCCCCCCC[C@@H](C[C@@H]1OC(=O)[C@H]1CC)OC(=O)CNC=O | – | – | – | – | – | –
26 | – | C/C=C/CC[C@H](CC1OC(=O)[C@H]1CCCCCC)OC(=O)CNC=O (some centres unmarked) | 4.24 | 4.40 | 4.43 | – | – | –
27 | – | CCCCCCCCCCCCC[C@H](CC1OC(=O)[C@@H]1CCCCCC)OC(=O)CNC=O (some centres unmarked) | < 4.00 | < 4.00 | < 4.00 | – | – | –
28 | 7.40 | CCCCCCCCCCCCC[C@H](C[C@@H]1OC(=O)[C@@H]1CCCCCC)OC(=O)CNC=O | – | – | – | – | – | –
29 | – | CCCCCCCCCCC[C@@H](C[C@@H]1OC(=O)[C@H]1CCCCCC)OC(=O)c1ccccc1 [drawing 150] | – | – | – | < 4.00 | < 4.00 | < 4.00
30 | – | CCCCCCCCCCC[C@@H](C[C@@H]1OC(=O)[C@H]1CCCCCC)OC(=O)CN(C)C [drawing 152] | – | – | – | 4.57 | 4.43 | 4.31
31 | – | CCCCCCCCCCC[C@@H](C[C@@H]1OC(=O)[C@H]1CCCCCC)OC(=O)c1ccccc1 [drawing 169] | < 4.00 | < 4.00 | < 4.00 | – | – | –
32 | – | CCCCCCCCCCC[C@@H](CC1OC(=O)[C@H]1CCCCCC)OC(=O)CN(C)C (some centres unmarked) [drawing 171] | 4.28 | – | 4.12 | – | 3.98 | –
